In patent US20200024278A1, “COMPOSITION COMPRISING ANTIBIOTIC COMPOUND AND AN HETEROCYCLIC COMPOUND AND THEIR USE IN PREVENTING OR TREATING BACTERIAL INFECTIONS” (MUTABILIS, priority 2016, published 2020):

Key:
Assay in all cases: MIC, broth microdilution (CLSI), substance alone or ATB combined with compound at 4 or 8 μg/mL
[1] = test system: ECO 190317; assay type: cell-based, E. coli; conditions: ECO 190317; for MIC ATB combined with Example: Example @4 μg/ml
Procedure, shortened: (§1)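 Growth inhibition endpoint, read visually after 16-20 h at 35° C in ambient air. Cation-adjusted Mueller-Hinton broth, inoculum 5·10^5 CFU/mL, CLSI M7-A7 protocol.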

[2] = test system: ECO UFR39; assay type: cell-based, E. coli; conditions: ECO UFR39; for MIC ATB combined with Example: Example @4 μg/ml; for MIC ATB combined with Example compound: compound @4 μg/ml
Procedure, shortened: as §1

[3] = test system: KPN 6299; assay type: cell-based, K. pneumoniae; conditions: for MIC ATB combined with Example: Example @4 μg/ml
Procedure, shortened: as §1

[4] = test system: KPN BAA-1898; assay type: cell-based, K. pneumoniae; conditions: KPN BAA-1898; for MIC ATB combined with Example: Example @4 μg/ml
Procedure, shortened: as §1

[5] = test system: KPN UFR42; assay type: cell-based, K. pneumoniae; conditions: KPN UFR42; for MIC ATB combined with Example: Example @4 μg/ml; for MIC ATB combined with Example compound: compound @4 μg/ml
Procedure, shortened: as §1

[6] = test system: ECL P99; assay type: cell-based, E. cloacae; conditions: ECL P99; for MIC ATB combined with Example: Example @4 μg/ml
Procedure, shortened: as §1

[7] = test system: PAE 105250; assay type: cell-based, P. aeruginosa; conditions: PAE 105250, Example @4 μg/ml
Procedure, shortened: as §1

## O=C1N2CC(n3ccnn3)=C[C@H](C2)N1OS(=O)(=O)[O-].[Na+] [Example 16, sodium [(5R)-7-oxo-3-(triazol-1-yl)-1,6-diazabicyclo[3.2.1]oct-3-en-6-yl] sulfate]
[1]; ATB ATM
  MIC ATB combined with Example: <0.031 µg/mL
[1]; ATB FEP
  MIC ATB combined with Example: <0.031 µg/mL
[1]; ATB FOS
  MIC ATB combined with Example: <0.125 µg/mL
[1]; ATB MEM
  MIC ATB combined with Example: <0.031 µg/mL
[1]; ATB PIP
  MIC ATB combined with Example: <0.031 µg/mL
[1]; MIC of CIP, compound @4 μg/ml
  MIC ATB combined with Example compound: <0.031 µg/mL
[1]; substance alone
  MIC: 0.5 µg/mL
[2]; ATB ATM
  MIC ATB combined with Example: <0.031 µg/mL
[2]; ATB FEP
  MIC ATB combined with Example: <0.031 µg/mL
[2]; ATB FOS
  MIC ATB combined with Example: <0.125 µg/mL
[2]; ATB MEM
  MIC ATB combined with Example: <0.031 µg/mL
[2]; ATB PIP
  MIC ATB combined with Example: <0.031 µg/mL
[2]; MIC of CIP
  MIC ATB combined with Example compound: <0.031 µg/mL
[2]; MIC of CPO
  MIC ATB combined with Example compound: <0.031 µg/mL
[2]; substance alone
  MIC: 0.5 µg/mL
[3]; ATB ATM
  MIC ATB combined with Example: <0.031 µg/mL
[3]; ATB FEP
  MIC ATB combined with Example: <0.031 µg/mL
[3]; ATB FOS
  MIC ATB combined with Example: <0.125 µg/mL
[3]; ATB MEM
  MIC ATB combined with Example: <0.031 µg/mL
[3]; ATB PIP
  MIC ATB combined with Example: <0.031 µg/mL
[3]; MIC of CIP, compound @4 μg/ml
  MIC ATB combined with Example compound: <0.031 µg/mL
[4]; ATB ATM
  MIC ATB combined with Example: <0.031 µg/mL
[4]; ATB FEP
  MIC ATB combined with Example: <0.031 µg/mL
[4]; ATB FOS
  MIC ATB combined with Example: <0.125 µg/mL
[4]; ATB MEM
  MIC ATB combined with Example: <0.031 µg/mL
[4]; ATB PIP
  MIC ATB combined with Example: <0.031 µg/mL
[4]; MIC of CIP, compound @4 μg/ml
  MIC ATB combined with Example compound: <0.031 µg/mL
[4]; substance alone
  MIC: 1 µg/mL
[5]; ATB ATM
  MIC ATB combined with Example: <0.031 µg/mL
[5]; ATB FEP
  MIC ATB combined with Example: <0.031 µg/mL
[5]; ATB FOS
  MIC ATB combined with Example: <0.125 µg/mL
[5]; ATB MEM
  MIC ATB combined with Example: <0.031 µg/mL
[5]; ATB PIP
  MIC ATB combined with Example: <0.031 µg/mL
[5]; MIC of CIP
  MIC ATB combined with Example compound: <0.031 µg/mL
[5]; MIC of CPO
  MIC ATB combined with Example compound: <0.031 µg/mL
[5]; substance alone
  MIC: 2 µg/mL
[6]; ATB ATM
  MIC ATB combined with Example: <0.031 µg/mL
[6]; ATB FEP
  MIC ATB combined with Example: <0.031 µg/mL
[6]; ATB FOS
  MIC ATB combined with Example: <0.125 µg/mL
[6]; ATB MEM
  MIC ATB combined with Example: <0.031 µg/mL
[6]; ATB PIP
  MIC ATB combined with Example: <0.031 µg/mL
[6]; MIC of CIP, compound @4 μg/ml
  MIC ATB combined with Example compound: <=0.031 μg/mL
[6]; substance alone
  MIC: 1 µg/mL
[7]; ATB ATM
  MIC ATB combined with Example: 8 µg/mL
[7]; ATB FEP
  MIC ATB combined with Example: 4 µg/mL
[7]; ATB FOS
  MIC ATB combined with Example: >128 µg/mL
[7]; ATB MEM
  MIC ATB combined with Example: 2 µg/mL
[7]; ATB PIP
  MIC ATB combined with Example: >32 µg/mL
